Measurements: patent publication EP3390415B1, “(R)- AND (S)-1-(3-(3-N,N-DIMETHYLAMINOCARBONYL)PHENOXYL-4-NITROPHENYL)-1-ETHYL-N,N'-BIS (ETHYLENE)PHOSPHORAMIDATE, COMPOSITIONS AND METHODS FOR THEIR USE AND PREPARATION” (OBI PHARMA, INC., priority 2015, dated 2017)
Read-outs that look alike come from different tables or passages of the source.

What was measured:
HCCC9810 = test: In vitro human tumor cell line cytotoxicity assay; assay type: cell-based; conditions: for IC50: Homo sapiens
LIXC012 = test: In vitro human tumor cell line cytotoxicity assay; assay type: cell-based; conditions: for IC50: Homo sapiens
Vcap = test: In vitro human tumor cell line cytotoxicity assay; assay type: cell-based; conditions: for IC50: Homo sapiens, VCaP
HepG2 = test: In vitro human tumor cell line cytotoxicity assay; assay type: cell-based; conditions: for IC50: Homo sapiens
C3A = test: In vitro human tumor cell line cytotoxicity assay; assay type: cell-based; conditions: for IC50: Homo sapiens
H460 cells = test: In vitro proliferation assay, H460; assay type: cell-based; conditions: Homo sapiens, NCI-H460; 2 hrs exposure, wash, additional 70hrs, AlamarBlue; read-out: IC 50 in proliferation assay in H460 cells
Experimental: In vitro proliferation data on the H460 […] human tumor cell line is reported above in the compound table. IC50 values are reported in micromolar and result from exposure of compound at various concentrations for 2 hrs followed by a wash step and addition of fresh media followed by growth and cell viability staining and comparison to a media only treated control.
Specifically, exponentially growing cells were seeded at a density of 4 x 10^3 cells per well in a 96 well plate and incubated at 37°C in 5% CO2, 95% air and 100% relative humidity for 24 hours prior to addition of test compounds. Compounds were solubilized in 100% DMSO at 200 times the desired final test concentration. At the time of drug addition, compounds were further diluted to 4 times the desired final concentration with complete medium. Aliquots of 50 µl of compound at specified concentrations were added to microtiter wells already containing 150 µl of medium, resulting in the final drug concentration reported. After drug addition, the plates were incubated for an additional 2 hours at 37°C, 5% CO2, 95% air, and 100% relative humidity, then the drug was washed off and fresh medium was added and the plates were incubated for addition 70hrs at 37 °C, 5% CO2, 95% air and 100% relative humidity. At the end of this incubation, the viable cells were quantified using the AlamarBlue assay. The drug concentration resulting in growth inhibition of 50% (IC50) was calculated using Prism software (Irvine, CA), and the results were listed in the table.

SNU-387 = test: In vitro human tumor cell line cytotoxicity assay; assay type: cell-based; conditions: for IC50: Homo sapiens
Recombinant human AKR1C3 = Recombinant human AKR1C3 (Homo sapiens, UniProt P42330); test: Activation by the aldoketo reductase AKR1C3; assay type: biochemical; conditions: 5 µM, 2 mM NADPH, 37 °C, up to 120 min; FIG. 2
Chain of Recombinant human AKR1C3 (P42330 whole entry): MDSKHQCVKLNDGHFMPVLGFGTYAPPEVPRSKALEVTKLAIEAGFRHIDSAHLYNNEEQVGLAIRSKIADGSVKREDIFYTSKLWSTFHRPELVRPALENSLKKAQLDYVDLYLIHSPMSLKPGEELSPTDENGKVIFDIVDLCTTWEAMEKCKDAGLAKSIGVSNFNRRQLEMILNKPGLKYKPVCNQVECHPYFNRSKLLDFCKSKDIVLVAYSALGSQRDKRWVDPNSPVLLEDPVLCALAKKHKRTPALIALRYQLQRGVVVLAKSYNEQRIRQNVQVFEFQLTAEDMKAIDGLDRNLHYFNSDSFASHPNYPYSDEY
Experimental: Recombinant human AKR1C3 was diluted to 25 µg/mL in phosphate buffered saline (PBS), pH 7.4 (37 °C), containing 2 mM NADPH. TH2870 or progesterone (positive control) in 30% methanol/70% water was added to the reaction mixture at a final concentration of 5 µM and incubated at 37 °C for 120 minutes. At various times up to 120 min, 50 µL of the reaction mixture was taken and 200 µL acetonitrile containing propranolol as internal standard was added, vortex-mixed and centrifuged for 10 min. The resulting supernatant (5 µL) was injected into a LC/MS/MS for quantitation of % remaining TH 2870 and progesterone. The compounds were tested in duplicates.

[1] = test system: A375 melanoma human tumor xenograft; test: In vivo human tumor xenograft model, antitumor activity; parameters: species or system nude mice; conditions: 20mpk,qdx5x2,ip
Source text: Specific pathogen-free homozygous female nude mice (nu/nu, Charles River Laboratories) were used. Mice were given food and water ad libitum and housed in microisolator cages. Four to six week old animals were identified by microchips (Locus Technology, Manchester, MD, USA) at the time of the experiments. All animal studies were approved by the Institutional Animal Care and Use Committee at Threshold Pharmaceuticals, Inc.
All cell lines were from the American Type Culture Collection (ATCC, Rockville, MD, USA).
Cells were mixed with Matrigel (30% in H460) and 0.2 ml per mouse were subcutaneously implanted to the flank area of the animals. When tumor size reached 100-150 mm^3, mice were randomized into experimental or vehicle groups with 10 mice/group and treatment was started (Day 1). The tested compounds were formulated in 5% DMSO in D5W. All compounds were given by IP, QDx5/wk (5 days on, 2 days off) as one cycle, for a total of 2 cycles. Tumor growth and body weight were measured twice a week. Tumor volume was calculated as (length x width^2)/2. Drug efficacy was assessed as Tumor Growth Inhibition (TGI) and Tumor Growth Delay (TGD). TGI was defined as (1-ΔT/ΔC) x 100, where ΔT/ΔC presented the ratio of the change in mean (or median, if variation within the group was relatively large) tumor volume of the treated group and of the control group. TGD was calculated as the extra days for the treated tumor to reach 500mm^3 as compared to the control group. Animals were culled when individual tumor size reached over 2000mm^3 or mean tumor volume exceeded 1000mm^3 in the group. Data are expressed as the mean ± SEM. One-way analysis of variance with Dunnett post comparison test (GraphPad Prism 4) or two-tailed student's t-test were used for analysis. A P level < 0.05 was considered statistically significant.
This study employed an A375 melanoma human tumor xenograft model and the compounds provided herein were compared to thiotepa and the approved anti melanoma drug, Abraxane. […] Mpk refers to mg/kg.

PLCPRF5 = test: In vitro human tumor cell line cytotoxicity assay; assay type: cell-based; conditions: for IC50: Homo sapiens

IC50 (H460 cells): 5 nM
disappearance of compound (% remaining) in the presence of AKR1C3 (Recombinant human AKR1C3): rapid disappearance
SMILES: CC(OP(=O)(N1CC1)N1CC1)c1ccc([N+](=O)[O-])c(Oc2cccc(C(=O)N(C)C)c2)c1 (racemic) [TH 2870, (R,S)-1-(3-(3-N,N-dimethylaminocarbonyl)phenoxyl-4-nitrophenyl)-1-ethyl-N,N'-bis(ethylene)phosphoramidate]
Max Inhibition% (HCCC9810): 95.4%
Min Inhibition% (HCCC9810): -2.6%
IC50 (HCCC9810; read-out: AbsIC50): 29.4 nM
IC50 (HCCC9810; read-out: RelIC50): 29.2 nM
Max Inhibition% (LIXC012): 87.1%
Min Inhibition% (LIXC012): 6.6%
IC50 (LIXC012; read-out: AbsIC50): 18.7 nM
IC50 (LIXC012; read-out: RelIC50): 27.4 nM
IC50 (Vcap; read-out: AbsIC50): 15.2 nM
IC50 (Vcap; read-out: RelIC50): 22.7 nM
Max Inhibition% (Vcap; Vcap): 100.2%
Min Inhibition% (Vcap; Vcap): -3.4%
Max Inhibition% (HepG2): 98.9%
Min Inhibition% (HepG2): 3.3%
IC50 (HepG2; read-out: AbsIC50): 6.4 nM
IC50 (HepG2; read-out: RelIC50): 5.5 nM
Max Inhibition% (C3A): 98.1%
Min Inhibition% (C3A): 8.1%
IC50 (C3A; read-out: AbsIC50): 6.2 nM
IC50 (C3A; read-out: RelIC50): 7.1 nM
Max Inhibition% (SNU-387): 102.8%
Min Inhibition% (SNU-387): 1.7%
IC50 (SNU-387; read-out: AbsIC50): 34 nM
IC50 (SNU-387; read-out: RelIC50): 42.2 nM
TGD500, Days (vs. vehicle) [1]: >13 days
TGI [1]: 98.0%
Max Inhibition% (PLCPRF5): 53.3%
Min Inhibition% (PLCPRF5): -1.7%
IC50 (PLCPRF5; PLC-PRF-5, read-out: AbsIC50): 575 nM
IC50 (PLCPRF5; PLC-PRF-5, read-out: RelIC50): 474 nM
